ChEMBL document CHEMBL1201861, “Genomics of Drug Sensitity in Cancer screening data, Wellcome Trust Sanger Institute”

Experiments:
[1] = system: COR-L279; assay: SANGER: Inhibition of human COR-L279 cell growth in a cell viability assay.; format: functional, cell-based; settings: Homo sapiens, COR-L279
[2] = system: DMS-79; assay: cells; format: functional, cell-based, Homo sapiens; settings: Homo sapiens, DMS-79
Description: SANGER: Inhibition of human DMS-79 cell growth in a cell viability assay.

[3] = system: EB2; assay: cells; format: functional, cell-based, Homo sapiens; settings: Homo sapiens, EB2;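 also: growth inhibition of EB2 cells, read out with a cell viability assay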
Description: SANGER: Inhibition of human EB2 cell growth in a cell viability assay.

[4] = system: K052; assay: cells; format: functional, cell-based, Homo sapiens; settings: Homo sapiens, K052;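 also: Read-out from a cell viability assay, IC50 reflecting suppression of K052 cell growth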
Description: SANGER: Inhibition of human K052 cell growth in a cell viability assay.

[5] = system: KARPAS-422; assay: cells; format: functional, cell-based, Homo sapiens; settings: Homo sapiens, KARPAS-422
Description: SANGER: Inhibition of human KARPAS-422 cell growth in a cell viability assay.

[6] = system: KP-N-RT-BM-1; assay: SANGER: Inhibition of human KP-N-RT-BM-1 cell growth in a cell viability assay.; format: functional, cell-based
[7] = system: LP-1; assay: cells; format: functional, cell-based, Homo sapiens; settings: Homo sapiens, LP-1;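 also: growth inhibition of human LP-1 cells, with the read-out taken from a cell viability assay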
Description: SANGER: Inhibition of human LP-1 cell growth in a cell viability assay.

[8] = system: MDA-MB-134-VI; assay: cells; format: functional, cell-based, Homo sapiens; settings: Homo sapiens, MDA-MB-134-VI
Description: SANGER: Inhibition of human MDA-MB-134-VI cell growth in a cell viability assay.

[9] = system: MONO-MAC-6; assay: cells; format: functional, cell-based, Homo sapiens; settings: Homo sapiens, MONO-MAC-6;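 also: cell viability assay measuring growth inhibition of human MONO-MAC-6 cells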
Description: SANGER: Inhibition of human MONO-MAC-6 cell growth in a cell viability assay.

[10] = system: NALM-6; assay: cells; format: functional, cell-based, Homo sapiens; settings: Homo sapiens, NALM-6;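 also: growth inhibition of NALM-6 cells, read out with a cell viability assay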
Description: SANGER: Inhibition of human NALM-6 cell growth in a cell viability assay.

[11] = system: NCI-H345; assay: cells; format: functional, cell-based, Homo sapiens; settings: Homo sapiens, NCI-H345;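 also: growth inhibition of NCI-H345 cells measured with a cell viability assay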
Description: SANGER: Inhibition of human NCI-H345 cell growth in a cell viability assay.

[12] = system: SIG-M5; assay: cells; format: functional, cell-based, Homo sapiens; settings: Homo sapiens, SIG-M5;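 also: cell viability assay read-out, measuring how strongly growth of cultured human SIG-M5 cells is inhibited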
Description: SANGER: Inhibition of human SIG-M5 cell growth in a cell viability assay.

[13] = system: SNU-C1; assay: cells; format: functional, cell-based, Homo sapiens; settings: Homo sapiens, SNU-C1;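 also: growth inhibition of SNU-C1 human cells, read out by a cell viability assay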
Description: SANGER: Inhibition of human SNU-C1 cell growth in a cell viability assay.

[14] = system: Ca-Ski; assay: cells; format: functional, cell-based; settings: Homo sapiens;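 also: cell viability assay measuring inhibition of Ca-Ski cell growth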
Description: SANGER: Inhibition of human Ca-Ski cell growth in a cell viability assay.

[15] = system: ChaGo-K-1; assay: cells; format: functional, cell-based; settings: Homo sapiens;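 also: growth inhibition of ChaGo-K-1 cells, read out with a cell viability assay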
Description: SANGER: Inhibition of human ChaGo-K-1 cell growth in a cell viability assay.

[16] = system: D-423MG; assay: cells; format: functional, cell-based; settings: Homo sapiens
Description: SANGER: Inhibition of human D-423MG cell growth in a cell viability assay.

[17] = system: D-566MG; assay: cells; format: functional, cell-based; settings: Homo sapiens
[18] = system: GAMG; assay: cells; format: functional, cell-based; settings: Homo sapiens;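 also: cell growth inhibition measured by a viability assay in the GAMG human cell line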
Description: SANGER: Inhibition of human GAMG cell growth in a cell viability assay.

[19] = system: GMS-10; assay: cells; format: functional, cell-based; settings: Homo sapiens;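 also: growth inhibition of GMS-10 cells, read out as cell viability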
Description: SANGER: Inhibition of human GMS-10 cell growth in a cell viability assay.

[20] = system: HLE; assay: cells; format: functional, cell-based; settings: Homo sapiens;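 also: growth inhibition of human HLE cells, read out by a cell viability assay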
Description: SANGER: Inhibition of human HLE cell growth in a cell viability assay.

[21] = system: HOP-92; assay: cells; format: functional, cell-based; settings: Homo sapiens;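 also: cell viability readout, with IC50 reflecting inhibition of HOP-92 cell growth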
Description: SANGER: Inhibition of human HOP-92 cell growth in a cell viability assay.

[22] = system: KNS-62; assay: cells; format: functional, cell-based; settings: Homo sapiens;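 also: inhibition of cell growth, read out with a cell viability assay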
Description: SANGER: Inhibition of human KNS-62 cell growth in a cell viability assay.

[23] = system: KP-N-YN; assay: cells; format: functional, cell-based; settings: Homo sapiens;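 also: growth inhibition of KP-N-YN cells, read out with a cell viability assay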
Description: SANGER: Inhibition of human KP-N-YN cell growth in a cell viability assay.

[24] = system: KYSE-140; assay: cells; format: functional, cell-based; settings: Homo sapiens;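 also: cell viability assay measuring growth inhibition in human KYSE-140 cells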
Description: SANGER: Inhibition of human KYSE-140 cell growth in a cell viability assay.

[25] = system: LU-99A; assay: cells; format: functional, cell-based; settings: Homo sapiens;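 also: growth inhibition of LU-99A cells, read out with a cell viability assay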
Description: SANGER: Inhibition of human LU-99A cell growth in a cell viability assay.

[26] = system: MOLT-13; assay: cells; format: functional, cell-based; settings: Homo sapiens;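 also: IC50 for suppression of MOLT-13 cell growth, read out with a cell viability assay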
Description: SANGER: Inhibition of human MOLT-13 cell growth in a cell viability assay.

[27] = system: NBsusSR; assay: cells; format: functional, cell-based; settings: Homo sapiens;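 also: growth inhibition of the human cell line, read out with a cell viability assay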
Description: SANGER: Inhibition of human NBsusSR cell growth in a cell viability assay.

[28] = system: NCI-H1048; assay: cells; format: functional, cell-based; settings: Homo sapiens;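 also: growth inhibition of human NCI-H1048 cells, read out with a cell viability assay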
Description: SANGER: Inhibition of human NCI-H1048 cell growth in a cell viability assay.

[29] = system: NCI-H2291; assay: cells; format: functional, cell-based; settings: Homo sapiens
Description: SANGER: Inhibition of human NCI-H2291 cell growth in a cell viability assay.

[30] = system: NCI-H358; assay: cells; format: functional, cell-based; settings: Homo sapiens;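 also: growth inhibition of NCI-H358 human cells, read out with a cell viability assay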
Description: SANGER: Inhibition of human NCI-H358 cell growth in a cell viability assay.

[31] = system: NUGC-3; assay: cells; format: functional, cell-based; settings: Homo sapiens;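 also: growth inhibition of human NUGC-3 cells, read out with a cell viability assay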
Description: SANGER: Inhibition of human NUGC-3 cell growth in a cell viability assay.

[32] = system: OE33; assay: cells; format: functional, cell-based; settings: Homo sapiens;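 also: growth inhibition of human OE33 cells, measured by a cell viability assay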
Description: SANGER: Inhibition of human OE33 cell growth in a cell viability assay.

[33] = system: OVCAR-8; assay: cells; format: functional, cell-based; settings: Homo sapiens;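 also: growth inhibition of human OVCAR-8 cells, read out by a cell viability assay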
Description: SANGER: Inhibition of human OVCAR-8 cell growth in a cell viability assay.

[34] = system: PC-14; assay: cells; format: functional, cell-based; settings: Homo sapiens;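 also: cell viability assay measuring inhibition of PC-14 cell growth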
Description: SANGER: Inhibition of human PC-14 cell growth in a cell viability assay.

[35] = system: SBC-5; assay: cells; format: functional, cell-based; settings: Homo sapiens;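 also: cell viability assay read-out, IC50 is the concentration that inhibits growth of the cells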
Description: SANGER: Inhibition of human SBC-5 cell growth in a cell viability assay.

[36] = system: SW-620; assay: cells; format: functional, cell-based; settings: Homo sapiens;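 also: growth inhibition of human SW-620 cells, measured by a cell viability assay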
Description: SANGER: Inhibition of human SW620 cell growth in a cell viability assay.

[37] = system: T47D; assay: cells; format: functional, cell-based; settings: Homo sapiens;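 also: growth inhibition of human T47D cells, measured with a cell viability assay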
Description: SANGER: Inhibition of human T47D cell growth in a cell viability assay.

[38] = system: CWR22R; assay: cells; format: functional, cell-based; settings: Homo sapiens, 22Rv1;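 also: growth inhibition of 22Rv1 cells, read out with a cell viability assay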
Description: SANGER: Inhibition of human 22RV1 cell growth in a cell viability assay.

[39] = system: 5637; assay: cells; format: functional, cell-based; settings: Homo sapiens
Description: SANGER: Inhibition of human 5637 cell growth in a cell viability assay.

[40] = system: 647-V; assay: cells; format: functional, cell-based; settings: Homo sapiens;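 also: growth inhibition of 647-V cells, read out with a cell viability assay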
Description: SANGER: Inhibition of human 647-V cell growth in a cell viability assay.

[41] = system: 8505C; assay: cells; format: functional, cell-based; settings: Homo sapiens
Description: SANGER: Inhibition of human 8505C cell growth in a cell viability assay.

[42] = system: A-431; assay: cells; format: functional, cell-based; settings: Homo sapiens;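 also: growth inhibition of A-431 cells, determined with a cell viability read-out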
Description: SANGER: Inhibition of human A431 cell growth in a cell viability assay.

[43] = system: A549; assay: cells; format: functional, cell-based; settings: Homo sapiens;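 also: growth inhibition of A549 cells, read out with a cell viability assay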
Description: SANGER: Inhibition of human A549 cell growth in a cell viability assay.

[44] = system: CAL-12T; assay: cells; format: functional, cell-based; settings: Homo sapiens;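 also: growth inhibition of human CAL-12T cells, read out with a cell viability assay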
Description: SANGER: Inhibition of human CAL-12T cell growth in a cell viability assay.

[45] = system: TGBC11TKB; assay: cells; format: functional, cell-based; settings: Homo sapiens;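 also: growth inhibition of human TGBC11TKB cells, measured by a cell viability assay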
Description: SANGER: Inhibition of human TGBC11TKB cell growth in a cell viability assay.

[46] = system: U-118-MG; assay: cells; format: functional, cell-based; settings: Homo sapiens
Description: SANGER: Inhibition of human U-118-MG cell growth in a cell viability assay.

[47] = system: YAPC; assay: cells; format: functional, cell-based; settings: Homo sapiens;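 also: growth inhibition of YAPC cells, measured with a cell viability assay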
Description: SANGER: Inhibition of human YAPC cell growth in a cell viability assay.

[48] = system: YH-13; assay: cells; format: functional, cell-based; settings: Homo sapiens;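 also: cell viability readout of growth suppression in the human YH-13 cell line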
Description: SANGER: Inhibition of human YH-13 cell growth in a cell viability assay.

[49] = system: ZR-75-30; assay: cells; format: functional, cell-based; settings: Homo sapiens;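 also: growth inhibition of ZR-75-30 cells, measured with a cell viability readout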
Description: SANGER: Inhibition of human ZR-75-30 cell growth in a cell viability assay.

[50] = system: CFPAC-1; assay: cells; format: functional, cell-based; settings: Homo sapiens;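 also: cell viability readout used to gauge suppression of CFPAC-1 cell proliferation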
Description: SANGER: Inhibition of human CFPAC-1 cell growth in a cell viability assay.

With `C=CC(=O)N1CCCC(Nc2nc(Nc3ccc(N(C)C(=O)CC)cc3)nc3[nH]cnc23)C1` (stereo not drawn) as the molecule, how does the IC50 [1] read?
The IC50 was over 10200 nM.

And the IC50 [2]?
Its IC50 is over 10200 nM.

And the IC50 [3]?
The IC50 was over 10200 nM.

And the IC50 [4]?
Its IC50 is over 10200 nM.

And the IC50 [5]?
Its IC50 is over 10200 nM.

What about the IC50 [6] of the same molecule?
Its IC50 is over 10200 nM.

What about the IC50 [7] of the same molecule?
The IC50 was over 10200 nM.

And the IC50 [8]?
Its IC50 is over 10200 nM.

And the IC50 [9]?
The IC50 was over 10200 nM.

And the IC50 [10]?
The IC50 was over 10200 nM.

What about the IC50 [11] of the same molecule?
The IC50 was over 10200 nM.

What about the IC50 [12] of the same molecule?
Its IC50 is over 10200 nM.

What about the IC50 [13] of the same molecule?
The IC50 was over 10200 nM.

Which IC50 [1] does the source give for `COc1ccc(N(C(=O)Oc2c(C)cccc2C)c2ccnc(Nc3ccc(N4CCN(C)CC4)cc3)n2)c(OC)c1` here?
The IC50 was over 5120 nM.

What about the IC50 [2] of the same molecule?
Its IC50 is over 5120 nM.

And the IC50 [3]?
Its IC50 is over 5120 nM.

What about the IC50 [4] of the same molecule?
The IC50 was over 5120 nM.

And the IC50 [5]?
Its IC50 is over 5120 nM.

And the IC50 [6]?
The IC50 was over 5120 nM.

What about the IC50 [7] of the same molecule?
Its IC50 is over 5120 nM.

And the IC50 [8]?
The IC50 was over 5120 nM.

And the IC50 [9]?
Its IC50 is over 5120 nM.

And the IC50 [10]?
Its IC50 is over 5120 nM.

What about the IC50 [11] of the same molecule?
The IC50 was over 5120 nM.

And the IC50 [12]?
Its IC50 is over 5120 nM.

And the IC50 [13]?
The IC50 was over 5120 nM.

`NC(=O)c1cccc(-c2cc(Nc3ccc(OC(F)(F)F)cc3)ncn2)c1` was tested. Which IC50 [1] did it give?
The IC50 was over 1280 nM.

And the IC50 [2]?
Its IC50 is over 1280 nM.

What about the IC50 [3] of the same molecule?
The IC50 was over 1280 nM.

And the IC50 [4]?
The IC50 was over 1280 nM.

And the IC50 [5]?
The IC50 was over 1280 nM.

And the IC50 [6]?
The IC50 was over 1280 nM.

What about the IC50 [7] of the same molecule?
Its IC50 is over 1280 nM.

What about the IC50 [8] of the same molecule?
Its IC50 is over 1280 nM.

What about the IC50 [9] of the same molecule?
Its IC50 is over 1280 nM.

And the IC50 [10]?
The IC50 was over 1280 nM.

And the IC50 [11]?
Its IC50 is over 1280 nM.

And the IC50 [12]?
Its IC50 is over 1280 nM.

And the IC50 [13]?
The IC50 was over 1280 nM.

For `NC(=O)Nc1cc(-c2cccc(F)c2)sc1C(=O)N[C@H]1CCCNC1` [AZD-7762], which IC50 [14] is on record?
Its IC50 is 388 nM.

And the IC50 [15]?
The IC50 was 325 nM.

And the IC50 [16]?
Its IC50 is 331 nM.

And the IC50 [17]?
Its IC50 is 147 nM.

And the IC50 [2]?
The IC50 was over 2000 nM.

And the IC50 [18]?
Its IC50 is 386 nM.

And the IC50 [19]?
The IC50 was 1350 nM.

And the IC50 [20]?
The IC50 was over 2000 nM.

What about the IC50 [21] of the same molecule?
The IC50 was 293 nM.

And the IC50 [22]?
Its IC50 is 566 nM.

And the IC50 [23]?
The IC50 was 349 nM.

And the IC50 [24]?
Its IC50 is 130 nM.

What about the IC50 [25] of the same molecule?
Its IC50 is over 2000 nM.

And the IC50 [26]?
The IC50 was 463 nM.

And the IC50 [27]?
The IC50 was 318 nM.

And the IC50 [28]?
The IC50 was 919 nM.

And the IC50 [29]?
The IC50 was over 2000 nM.

And the IC50 [30]?
Its IC50 is 1430 nM.

And the IC50 [31]?
Its IC50 is over 2000 nM.

What about the IC50 [32] of the same molecule?
Its IC50 is 391 nM.

And the IC50 [33]?
Its IC50 is 356 nM.

What about the IC50 [34] of the same molecule?
Its IC50 is 417 nM.

What about the IC50 [35] of the same molecule?
The IC50 was 513 nM.

And the IC50 [36]?
The IC50 was 662 nM.

And the IC50 [37]?
The IC50 was over 2000 nM.

And the IC50 [38]?
The IC50 was 1810 nM.

And the IC50 [39]?
The IC50 was 193 nM.

And the IC50 [40]?
Its IC50 is 618 nM.

What about the IC50 [41] of the same molecule?
Its IC50 is 350 nM.

And the IC50 [42]?
The IC50 was 925 nM.

And the IC50 [43]?
Its IC50 is 1490 nM.

And the IC50 [44]?
The IC50 was 433 nM.

What about the IC50 [45] of the same molecule?
Its IC50 is 111 nM.

What about the IC50 [46] of the same molecule?
Its IC50 is over 2000 nM.

What about the IC50 [47] of the same molecule?
Its IC50 is over 2000 nM.

And the IC50 [48]?
The IC50 was 157 nM.

What about the IC50 [49] of the same molecule?
Its IC50 is over 2000 nM.

And the IC50 [50]?
The IC50 was 723 nM.

`CC(C)C[C@H](NC(=O)[C@H](Cc1ccccc1)NC(=O)c1cnccn1)B(O)O` [BORTEZOMIB] was tested. Which IC50 [1] did it give?
Its IC50 is over 20 nM.

And the IC50 [2]?
Its IC50 is over 20 nM.

And the IC50 [3]?
Its IC50 is 18.1 nM.

What about the IC50 [5] of the same molecule?
Its IC50 is over 20 nM.

What about the IC50 [7] of the same molecule?
Its IC50 is over 20 nM.

What about the IC50 [8] of the same molecule?
Its IC50 is over 20 nM.

What about the IC50 [9] of the same molecule?
The IC50 was 3.1 nM.

What about the IC50 [10] of the same molecule?
Its IC50 is 4.49 nM.

And the IC50 [11]?
The IC50 was 7.2 nM.

And the IC50 [12]?
Its IC50 is over 20 nM.

What about the IC50 [13] of the same molecule?
Its IC50 is over 20 nM.
